Experiments:
[1] = molecular target: T1, LasB elastase activity in dialysed supernatant from P. aeruginosa strain PA01 (Pseudomonas aeruginosa, UniProt P14756); assay: Elastin Congo Red assay to determine % inhibition (Assay 1); format: biochemical; details: read-out: Elastin hydrolysis % inhibition @ 50/25 μM inhibitor concentration Assay 1
T1 construct: uses as source of enzyme dialysed supernatant from P. aeruginosa; endogenous in cells; host or cells: P. aeruginosa strain PA01 culture supernatant, filtered and dialysed
T1 sequence (P14756 198-498): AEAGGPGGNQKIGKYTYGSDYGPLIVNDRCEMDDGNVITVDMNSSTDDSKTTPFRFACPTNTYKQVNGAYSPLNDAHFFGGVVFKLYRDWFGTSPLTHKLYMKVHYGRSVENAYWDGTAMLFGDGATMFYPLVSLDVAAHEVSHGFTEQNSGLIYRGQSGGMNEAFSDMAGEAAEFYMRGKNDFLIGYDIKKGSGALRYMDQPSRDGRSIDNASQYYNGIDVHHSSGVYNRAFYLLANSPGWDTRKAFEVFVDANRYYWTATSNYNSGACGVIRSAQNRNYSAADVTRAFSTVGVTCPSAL
Procedure, shortened: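 Enzyme source: PA01 culture supernatant (19 h growth), filtered and dialysed into 50 mM Tris pH 7.4, 2.5 mM CaCl2. Mixed 1:1 with Elastin Congo Red (20 mg/mL) plus 0.01% Triton X-100 and compound (routinely 50 and 25 μM), 24 h at 37 °C shaking. Dye release at OD520 gives % inhibition versus DMSO.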

[2] = molecular target: T2, purified LasB protein from P. aeruginosa (Pseudomonas aeruginosa, UniProt P14756); assay: Fluorometric assay to determine Ki (Assay 1); format: biochemical; details: Ki (μM) Assay 1, purified LasB, substrate Abz-Ala-Gly-Leu-Ala-p-Nitro-Benzyl-Amide 250 μM, Ki calculated from IC50; inhibitor 0.006 to 200 μM
T2 construct: purchased Merck or Charles River Laboratories
T2 sequence (P14756 198-498): as above
Procedure, shortened: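 Purified LasB (10 to 140 ng/ml) with 250 μM Abz-Ala-Gly-Leu-Ala-p-nitrobenzylamide in 50 mM Tris-HCl pH 7.4, 2.5 mM CaCl2, 0.01% Triton X100; hydrolysis read by fluorescence (Ex 340/Em 415 nm) over 30 min at 37° C. Inhibitor 2-fold series, 0.006–200 μM (Assay 1) or 0.0016–200 μM (Assay 2); IC50 converted to Ki via Ki=IC50/(1+[S]/Km), Km=214 μM.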

Q: For O=C(O)CC1(C(=O)NCc2nc3c(Br)cccc3s2)Cc2ccccc2C1 [Example 61, 2-(2-(((4-bromobenzo[d]thiazol-2-yl)methyl)carbamoyl)-2,3-dihydro-1H-inden-2-yl)acetic acid], which inhibition at 50 µM [1] is on record?
A: The inhibition at 50 µM was over 60%.

Q: What about the Ki [2] of the same compound?
A: The Ki was under 0.3 µM.

Q: How did the inhibition at 50 µM [1] turn out when COc1cccc2sc(CNC(=O)C3(CC(=O)O)Cc4ccccc4C3)nc12 [Example 62, 2-(2-(((4-methoxybenzo[d]thiazol-2-yl)methyl)carbamoyl)-2,3-dihydro-1H-inden-2-yl)acetic acid] was run?
A: The inhibition at 50 µM was over 60%.

Q: What about the Ki [2] of the same compound?
A: The Ki was under 0.3 µM.

Q: Which inhibition at 50 µM [1] does the source give for O=C(O)CC1(C(=O)NCc2nc3c(I)cccc3s2)Cc2ccccc2C1 [Example 63, 2-(2-(((4-iodobenzo[d]thiazol-2-yl)methyl)carbamoyl)-2,3-dihydro-1H-inden-2-yl)acetic acid] here?
A: The inhibition at 50 µM was over 60%.

Q: And the Ki [2]?
A: The Ki was under 0.3 µM.

Q: What does the source list for CCOc1cccc2sc(CNC(=O)C3(CC(=O)O)Cc4ccccc4C3)nc12 [Example 64, 2-(2-(((4-ethoxybenzo[d]thiazol-2-yl)methyl)carbamoyl)-2,3-dihydro-1H-inden-2-yl)acetic acid]?
A: inhibition at 50 µM [1]: > 60%; Ki [2]: 0.3 to 2 µM

Q: With Cc1cccc2sc(CNC(=O)C3(CC(=O)O)Cc4ccccc4C3)nc12 [Example 65, 2-(2-(((4-methylbenzo[d]thiazol-2-yl)methyl)carbamoyl)-2,3-dihydro-1H-inden-2-yl)acetic acid] as the compound, how does the inhibition at 50 µM [1] read?
A: The inhibition at 50 µM was over 60%.

Q: And the Ki [2]?
A: Its Ki is under 0.3 µM.

Q: For O=C(O)CC1(C(=O)NCc2nc3c(N4CCOCC4)cccc3s2)Cc2ccccc2C1 [Example 66, 2-(2-(((4-morpholinobenzo[d]thiazol-2-yl)methyl)carbamoyl)-2,3-dihydro-1H-inden-2-yl)acetic acid], which inhibition at 50 µM [1] is on record?
A: The inhibition at 50 µM was over 60%.

Q: And the Ki [2]?
A: Its Ki is 0.3 to 2 µM.

Q: How did the inhibition at 50 µM [1] turn out when CN(C)C1CN(c2ccc3nc(CNC(=O)C4(CC(=O)O)Cc5ccccc5C4)sc3c2)C1 [Example 67, 2-(2-(((6-(3-(dimethylamino)azetidin-1-yl)benzo[d]thiazol-2-yl)methyl)carbamoyl)-2,3-dihydro-1H-inden-2-yl)acetic acid] was run?
A: Its inhibition at 50 µM is over 60%.

Q: What about the Ki [2] of the same compound?
A: Its Ki is 0.3 to 2 µM.

Q: With C[N+](C)(C)C1CN(c2ccc3nc(CNC(=O)C4(CC(=O)[O-])Cc5ccccc5C4)sc3c2)C1 [Example 68, 2-[2-[[6-[3-(trimethylammonio)azetidin-1-yl]-1,3-benzothiazol-2-yl]methylcarbamoyl]indan-2-yl]acetate] as the compound, how does the inhibition at 50 µM [1] read?
A: Its inhibition at 50 µM is 30 to 60%.

Q: And the Ki [2]?
A: The Ki was 0.3 to 2 µM.

Q: Which results are given for NCCNc1ccc2nc(CNC(=O)C3(CC(=O)O)Cc4ccccc4C3)sc2c1 [Example 69, 2-[2-[[6-(2-aminoethylamino)-1,3-benzothiazol-2-yl]methylcarbamoyl]indan-2-yl]acetic acid]?
A: inhibition at 50 µM [1]: > 60%; Ki [2]: 0.3 to 2 µM

Q: How did the inhibition at 50 µM [1] turn out when NCCC1CN(c2ccc3nc(CNC(=O)C4(CC(=O)O)Cc5ccccc5C4)sc3c2)C1 [Example 70, 2-[2-[[6-[3-(2-aminoethyl)azetidin-1-yl]-1,3-benzothiazol-2-yl]methylcarbamoyl]indan-2-yl]acetic acid] was run?
A: The inhibition at 50 µM was over 60%.

Q: And the Ki [2]?
A: The Ki was under 0.3 µM.

Q: With CN1CC2(C1)CN(c1ccc3nc(CNC(=O)C4(CC(=O)O)Cc5ccccc5C4)sc3c1)C2 [Example 71, 2-[2-[[6-(6-methyl-2,6-diazaspiro[3.3]heptan-2-yl)-1,3-benzothiazol-2-yl]methylcarbamoyl]indan-2-yl]acetic acid] as the compound, how does the inhibition at 50 µM [1] read?
A: The inhibition at 50 µM was over 60%.

Q: What about the Ki [2] of the same compound?
A: Its Ki is under 0.3 µM.

Q: What does the source list for NCCNc1ccc2sc(CNC(=O)C3(CC(=O)O)Cc4ccccc4C3)nc2c1 [Example 72, 2-[2-[[5-(2-aminoethylamino)-1,3-benzothiazol-2-yl]methylcarbamoyl]indan-2-yl]acetic acid]?
A: inhibition at 50 µM [1]: > 60%; Ki [2]: 0.3 to 2 µM

Q: How did the inhibition at 50 µM [1] turn out when NC1CN(c2ccc3sc(CNC(=O)C4(CC(=O)O)Cc5ccccc5C4)nc3c2)C1 [Example 73, 2-[2-[[5-(3-aminoazetidin-1-yl)-1,3-benzothiazol-2-yl]methylcarbamoyl]indan-2-yl]acetic acid] was run?
A: Its inhibition at 50 µM is over 60%.

Q: What about the Ki [2] of the same compound?
A: Its Ki is under 0.3 µM.

Q: What does the source list for CN(C)C1CN(c2ccc3sc(CNC(=O)C4(CC(=O)O)Cc5ccccc5C4)nc3c2)C1 [Example 74, 2-[2-[[5-[3-(dimethylamino)azetidin-1-yl]-1,3-benzothiazol-2-yl]methylcarbamoyl]indan-2-yl]acetic acid]?
A: inhibition at 50 µM [1]: > 60%; Ki [2]: < 0.3 µM

Q: For C[N+](C)(C)C1CN(c2ccc3sc(CNC(=O)C4(CC(=O)[O-])Cc5ccccc5C4)nc3c2)C1 [Example 75, 2-[2-[[5-[3-(trimethylammonio)azetidin-1-yl]-1,3-benzothiazol-2-yl]methylcarbamoyl]indan-2-yl]acetate], which inhibition at 50 µM [1] is on record?
A: Its inhibition at 50 µM is over 60%.

Q: And the Ki [2]?
A: The Ki was 0.3 to 2 µM.

Q: How did the inhibition at 50 µM [1] turn out when CN(C)CCNc1ccc2sc(CNC(=O)C3(CC(=O)O)Cc4ccccc4C3)nc2c1 [Example 76, 2-[2-[[5-[2-(dimethylamino)ethylamino]-1,3-benzothiazol-2-yl]methylcarbamoyl]indan-2-yl]acetic acid] was run?
A: The inhibition at 50 µM was over 60%.

Q: And the Ki [2]?
A: Its Ki is 0.3 to 2 µM.

Q: How did the inhibition at 50 µM [1] turn out when NCCc1ccc2nc(CNC(=O)C3(CC(=O)O)Cc4ccccc4C3)sc2c1 [Example 80, 2-[2-[[6-(2-aminoethyl)-1,3-benzothiazol-2-yl]methylcarbamoyl]indan-2-yl]acetic acid] was run?
A: The inhibition at 50 µM was over 60%.

Q: What about the Ki [2] of the same compound?
A: The Ki was 0.3 to 2 µM.

Q: C[N+](C)(C)CC#Cc1ccc2nc(CNC(=O)C3(CC(=O)[O-])Cc4ccccc4C3)sc2c1 [Example 86, 2-[2-[[6-[3-(trimethylammonio)prop-1-ynyl]-1,3-benzothiazol-2-yl]methylcarbamoyl]indan-2-yl]acetate] was tested. Which inhibition at 50 µM [1] did it give?
A: Its inhibition at 50 µM is over 60%.

Q: What about the Ki [2] of the same compound?
A: The Ki was under 0.3 µM.

Q: NC/C=C/c1ccc2sc(CNC(=O)C3(CC(=O)O)Cc4ccccc4C3)nc2c1 [Example 87, 2-[2-[[5-[(E)-3-aminoprop-1-enyl]-1,3-benzothiazol-2-yl]methylcarbamoyl]indan-2-yl]acetic acid] was tested. Which inhibition at 50 µM [1] did it give?
A: The inhibition at 50 µM was over 60%.

Q: And the Ki [2]?
A: The Ki was 0.3 to 2 µM.

Q: With CN(C)CC#Cc1ccc2sc(CNC(=O)C3(CC(=O)O)Cc4ccccc4C3)nc2c1 [Example 88, 2-[2-[[5-[3-(dimethylamino)prop-1-ynyl]-1,3-benzothiazol-2-yl]methylcarbamoyl]indan-2-yl]acetic acid] as the compound, how does the inhibition at 50 µM [1] read?
A: The inhibition at 50 µM was over 60%.

Q: And the Ki [2]?
A: Its Ki is under 0.3 µM.

Q: Which inhibition at 50 µM [1] does the source give for CN(C)CCCc1ccc2sc(CNC(=O)C3(CC(=O)O)Cc4ccccc4C3)nc2c1 [Example 89, 2-[2-[[5-[3-(dimethylamino)propyl]-1,3-benzothiazol-2-yl]methylcarbamoyl]indan-2-yl]acetic acid] here?
A: The inhibition at 50 µM was over 60%.

Q: And the Ki [2]?
A: The Ki was 0.3 to 2 µM.

Q: What does the source list for C[N+](C)(C)CCCc1ccc2sc(CNC(=O)C3(CC(=O)[O-])Cc4ccccc4C3)nc2c1 [Example 90, 2-[2-[[5-[3-(trimethylammonio)propyl]-1,3-benzothiazol-2-yl]methylcarbamoyl]indan-2-yl]acetate]?
A: inhibition at 50 µM [1]: > 60%; Ki [2]: 0.3 to 2 µM

Q: What does the source list for CN(C)C[C@H]1C[C@H](c2ccc3nc(CNC(=O)C4(CC(=O)O)Cc5ccccc5C4)sc3c2)C1 [Example 91, 2-(2-(((6-((1 r,3r)-3-((dimethylamino)methyl)cyclobutyl)benzo[d]thiazol-2-yl)methyl)carbamoyl)-2,3-dihydro-1H-inden-2-yl)acetic acid]?
A: inhibition at 50 µM [1]: > 60%; Ki [2]: < 0.3 µM

Q: What does the source list for C[N+](C)(C)C[C@H]1C[C@H](c2ccc3nc(CNC(=O)C4(CC(=O)[O-])Cc5ccccc5C4)sc3c2)C1 [Example 92, 2-[2-[[6-[(1r,3r)-3-[(trimethylammonio)methyl]cyclobutyl]-1,3-benzothiazol-2-yl]methylcarbamoyl]indan-2-yl]acetate]?
A: inhibition at 50 µM [1]: > 60%; Ki [2]: 0.3 to 2 µM

Q: For CN(C)C[C@H]1C[C@@H](c2ccc3nc(CNC(=O)C4(CC(=O)O)Cc5ccccc5C4)sc3c2)C1 [Example 93, 2-(2-(((6-((1s,3s)-3-((dimethylamino)methyl)cyclobutyl)benzo[d]thiazol-2-yl)methyl)carbamoyl)-2,3-dihydro-1H-inden-2-yl)acetic acid], which inhibition at 50 µM [1] is on record?
A: The inhibition at 50 µM was over 60%.

Q: What about the Ki [2] of the same compound?
A: The Ki was under 0.3 µM.

Q: For C[N+](C)(C)C[C@H]1C[C@@H](c2ccc3nc(CNC(=O)C4(CC(=O)[O-])Cc5ccccc5C4)sc3c2)C1 [Example 94, 2-[2-[[6-[(1s,3s)-3-[(trimethylammonio)methyl]cyclobutyl]-1,3-benzothiazol-2-yl]methylcarbamoyl]indan-2-yl]acetate], which inhibition at 50 µM [1] is on record?
A: The inhibition at 50 µM was over 60%.

Q: And the Ki [2]?
A: The Ki was under 0.3 µM.

Q: For CN(C)CCc1ccc2nc(CNC(=O)C3(CC(=O)O)Cc4ccccc4C3)sc2c1 [Example 95, 2-[2-[[6-[2-(dimethylamino)ethyl]-1,3-benzothiazol-2-yl]methylcarbamoyl]indan-2-yl]acetic acid], which inhibition at 50 µM [1] is on record?
A: Its inhibition at 50 µM is 30 to 60%.

Q: And the Ki [2]?
A: The Ki was 0.3 to 2 µM.

Q: How did the inhibition at 50 µM [1] turn out when C[N+](C)(C)CCc1ccc2nc(CNC(=O)C3(CC(=O)[O-])Cc4ccccc4C3)sc2c1 [Example 96, 2-[2-[[6-[2-(trimethylammonio)ethyl]-1,3-benzothiazol-2-yl]methylcarbamoyl]indan-2-yl]acetate] was run?
A: The inhibition at 50 µM was 30 to 60%.

Q: What about the Ki [2] of the same compound?
A: The Ki was 0.3 to 2 µM.

Q: With NCC1CN(c2ccc3nc(CNC(=O)C4(CC(=O)O)Cc5ccccc5C4)sc3c2)C1 [Example 99, 2-[2-[[6-[3-(aminomethyl)azetidin-1-yl]-1,3-benzothiazol-2-yl]methylcarbamoyl]indan-2-yl]acetic acid] as the compound, how does the inhibition at 50 µM [1] read?
A: The inhibition at 50 µM was over 60%.

Q: What about the Ki [2] of the same compound?
A: Its Ki is under 0.3 µM.

From patent US11000511B2, “Chemical compounds as antibiotics” (priority 2017, dated 2021)
